Key:
Experiment in all cases: relative viability (nuclei count vs DMSO), 5 days (fraction); higher = more cells survive
[1] = compound: COc1cc2nccc(Oc3ccc(NC(=O)C4(C(=O)Nc5ccc(F)cc5)CC4)cc3)c2cc1OC [Cabozantinib] + CS(=O)(=O)N1CCN(Cc2cc3nc(-c4cccc5[nH]ncc45)nc(N4CCOCC4)c3s2)CC1 [Pictilisib] (partner 1 µM)
In short: (§1)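 Lung cancer cell lines, seeded in 1536-well plates, were treated the following day by pin tool with a single drug or with five library-drug doses (not always all listed) in √10 steps on top of a fixed anchor-drug dose. Cells were fixed and nuclei stained in one step after 5 days, and nuclei were counted. Relative viability is the nuclei count for treated wells divided by that for vehicle wells, reported as medians of duplicate plates.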

Kobe2602 + Pemetrexed = compound: C1=CC(=CC=C1NC(=S)NNC2=C(C=C(C=C2[N+](=O)[O-])C(F)(F)F)[N+](=O)[O-])F [Kobe2602] + Nc1nc2[nH]cc(CCc3ccc(C(=O)N[C@@H](CCC(=O)O)C(=O)O)cc3)c2c(=O)[nH]1 [Pemetrexed] (partner 0.2 µM)
In short: as §1

Kobe2602 + Vorinostat = compound: C1=CC(=CC=C1NC(=S)NNC2=C(C=C(C=C2[N+](=O)[O-])C(F)(F)F)[N+](=O)[O-])F [Kobe2602] + O=C(CCCCCCC(=O)Nc1ccccc1)NO [Vorinostat] (partner 1 µM)
In short: as §1

Kobe2602 + OSI-027 = compound: C1=CC(=CC=C1NC(=S)NNC2=C(C=C(C=C2[N+](=O)[O-])C(F)(F)F)[N+](=O)[O-])F [Kobe2602] + COc1cccc2cc(-c3nc([C@H]4CC[C@H](C(=O)O)CC4)n4ncnc(N)c34)[nH]c12 [OSI-027] (partner 0.5 µM)
In short: as §1

Cell Line	relative viability ([1]; first compound 0.02 µM)	relative viability ([1]; first compound 0.06325 µM)	relative viability ([1]; first compound 0.2 µM)	relative viability ([1]; first compound 0.6325 µM)	relative viability ([1]; first compound 2 µM)	relative viability (Kobe2602 + Pemetrexed; first compound 0.2 µM)	relative viability (Kobe2602 + Pemetrexed; first compound 0.6325 µM)	relative viability (Kobe2602 + Pemetrexed; first compound 2 µM)	relative viability (Kobe2602 + Pemetrexed; first compound 6.325 µM)	relative viability (Kobe2602 + Pemetrexed; first compound 20 µM)	relative viability (Kobe2602 + Vorinostat; first compound 0.2 µM)	relative viability (Kobe2602 + Vorinostat; first compound 0.6325 µM)	relative viability (Kobe2602 + Vorinostat; first compound 2 µM)	relative viability (Kobe2602 + Vorinostat; first compound 6.325 µM)	relative viability (Kobe2602 + Vorinostat; first compound 20 µM)	relative viability (Kobe2602 + OSI-027; first compound 0.2 µM)	relative viability (Kobe2602 + OSI-027; first compound 0.6325 µM)	relative viability (Kobe2602 + OSI-027; first compound 2 µM)	relative viability (Kobe2602 + OSI-027; first compound 20 µM)	relative viability (Kobe2602 + OSI-027; first compound 6.325 µM)
201T	0.688	0.715	0.656	0.709	0.71	0.353	0.366	0.341	0.379	0.288	0.959	0.938	0.997	1.03	1.1	0.815	0.802	0.764	0.603	–
A549	0.572	0.57	0.502	0.514	0.379	–	–	–	–	–	–	–	–	–	–	–	–	–	–	–
A-427	0.657	0.785	0.638	0.773	0.744	0.993	1.08	0.963	0.956	0.902	0.889	0.849	0.906	0.888	0.867	0.508	0.583	0.399	0.476	0.446
ABC-1	0.604	0.707	0.681	0.701	0.819	–	–	–	–	–	1.17	1.54	0.754	1.02	1.41	0.582	0.501	–	0.628	0.585
BEN	0.58	0.632	0.576	0.601	0.458	0.736	0.803	0.724	0.846	0.98	0.634	0.606	0.581	0.56	0.625	0.295	0.293	0.326	0.319	0.282
CAL-12T	0.364	0.411	0.383	–	0.336	1.2	1.14	1.24	1.1	1.14	0.828	0.831	0.769	0.851	0.706	0.647	0.583	0.572	0.557	0.636
COR-L23	0.487	0.831	0.789	0.74	0.691	0.209	0.2	0.212	0.204	0.204	0.476	0.491	0.405	0.472	0.404	0.744	0.782	0.71	0.737	0.811
COR-L 105	0.343	0.385	–	0.43	0.37	1.01	1.27	0.923	1.15	1.16	0.786	0.932	0.647	0.774	0.705	0.631	0.784	0.623	0.843	0.82
Calu-6	0.984	1.05	0.878	0.814	0.78	–	–	–	–	–	–	–	–	–	–	–	–	–	–	–
ChaGo-K-1	0.533	0.933	0.676	0.405	0.647	0.27	0.26	0.267	0.267	0.266	0.813	0.812	0.766	0.708	0.697	0.485	0.543	0.622	0.47	0.541
EBC-1	0.29	0.193	0.169	0.166	0.107	–	–	–	–	–	–	–	–	–	–	–	–	–	–	–
EKVX	0.483	0.448	0.344	0.418	0.367	0.416	0.394	0.404	0.41	0.408	0.678	0.879	0.652	0.757	0.672	0.684	0.68	0.707	0.695	0.659
EMC-BAC-2	0.505	0.566	0.516	0.554	0.542	0.459	0.453	0.445	0.492	0.457	0.494	1.01	0.425	0.593	0.462	0.365	0.512	0.381	0.421	0.413
EPLC-272H	0.192	0.262	0.323	0.356	0.279	0.353	0.35	0.301	0.318	0.279	0.494	0.676	0.557	0.402	0.479	0.3	0.286	0.289	0.32	0.311
H3255	0.473	0.572	–	0.466	0.48	0.549	0.544	0.57	0.629	0.584	0.772	0.841	0.776	0.853	0.78	0.52	0.73	0.613	0.564	0.605
HARA	0.315	0.417	0.508	0.474	0.429	0.228	0.296	0.255	0.239	0.313	0.529	0.553	0.422	0.509	0.767	0.59	0.547	0.407	0.524	0.542
HCC-15	0.785	0.762	0.69	0.719	0.799	0.238	0.216	0.223	0.229	0.211	0.908	0.912	0.814	0.815	0.812	0.629	0.723	0.616	0.637	0.676
HCC-44	0.487	0.581	0.6	0.571	0.662	0.595	0.684	0.653	0.671	0.609	0.999	1.04	1.08	1.05	0.99	0.484	0.597	0.377	0.683	0.586
